Values after ≈ are worked out from the molar mass of the structure shown.
| Compound | solubility (25 °C) | solubility | further results |
| --- | --- | --- | --- |
| O=C(N/N=C/c1ccccc1O)c1ccncc1 | 0.207 mM (≈ 50 µg/mL) |  |  |
| C=C1C=CC(=O)O1 |  | 104 mM (≈ 10000 µg/mL) |  |
| O=Nc1c(O)ccc2ccccc12 | 5.77 mM (≈ 1000 µg/mL) |  |  |
| C#CC(C)(CC)OC(N)=O (stereo not given) |  | 113 mM (≈ 16000 µg/mL) |  |
| CC(=O)NCc1c(I)c(NC(C)=O)c(I)c(C(=O)O)c1I |  |  | solubility (22 °C): 4.78 mM (≈ 3000 µg/mL) |
| OC[C@H]1O[C@@H](n2cnc3cncnc32)[C@H](O)[C@@H]1O |  | 396 mM (≈ 100000 µg/mL) |  |
| Nc1ccc(S(=O)(=O)Nc2ccnn2-c2ccccc2)cc1 | 4.77 mM (≈ 1500 µg/mL) |  |  |
| CCOCCOC(=O)C=Cc1ccc(OC)cc1 |  | 2 mM (≈ 500 µg/mL) |  |
| CCCCOC(=O)C=Cc1ccccc1 |  | 24.5 mM (≈ 5000 µg/mL) |  |
| O=C(NCN1CCOCC1)c1cnccn1 |  | 1500 mM (≈ 333000 µg/mL) |  |
| COc1cc(O)c(C(=O)c2ccccc2)cc1S(=O)(=O)O |  | 811 mM (≈ 250000 µg/mL) |  |
| O=C(O)CCC(=O)OOC(=O)CCC(=O)O |  | 142 mM (≈ 33300 µg/mL) |  |
| NCCNc1cccc2ccccc12 | 10.7 mM (≈ 2000 µg/mL) |  |  |
| O=NN(CCCl)C(=O)NCCCl | 18.7 mM (≈ 4000 µg/mL) |  |  |
| CC(C)(C)CC(=O)OCC(=O)[C@@]12OC(C)(C)O[C@@H]1C[C@H]1[C@@H]3CCC4=CC(=O)C=C[C@]4(C)[C@@]3(F)[C@@H](O)C[C@@]12C | 0.00751 mM (≈ 4 µg/mL) |  |  |
